# From patent EP1028948B1, “PHENYL-ALKYL-IMIDAZOLES AS H3 RECEPTOR ANTAGONISTS” (SCHERING CORPORATION, priority 1997, dated 1999)
# Molecular target: T1, H3 receptors (Cavia porcellus, UniProt Q9JI35)
# T1 construct: The brain tissue was homogenized using a Polytron in a solution of 50 mM Tris, pH 7.5; from tissue; host or cells: guinea pig brain membranes
# Experiment: H3 Receptor Binding Assay
# Settings: guinea pig brain membranes; 3 nM [3H]R-α-methylhistamine or 3 nM [3H]Nα-methylhistamine; 30°C for 30 min
# Protocol: The source of the H3 receptors in this experiment was guinea pig brain. The animals weighed 400-600 g. […] The final concentration of tissue in the homogenization buffer was 10% w/v. […] The membranes were frozen and stored at -70°C until needed.
# Membranes were then added (400 µg of protein) to the reaction tubes. […] Bound ligand was separated from unbound ligand by filtration, and the amount of radioactive ligand bound to the membranes was quantitated by liquid scintillation spectrometry.
# T1 sequence (Q9JI35 whole entry): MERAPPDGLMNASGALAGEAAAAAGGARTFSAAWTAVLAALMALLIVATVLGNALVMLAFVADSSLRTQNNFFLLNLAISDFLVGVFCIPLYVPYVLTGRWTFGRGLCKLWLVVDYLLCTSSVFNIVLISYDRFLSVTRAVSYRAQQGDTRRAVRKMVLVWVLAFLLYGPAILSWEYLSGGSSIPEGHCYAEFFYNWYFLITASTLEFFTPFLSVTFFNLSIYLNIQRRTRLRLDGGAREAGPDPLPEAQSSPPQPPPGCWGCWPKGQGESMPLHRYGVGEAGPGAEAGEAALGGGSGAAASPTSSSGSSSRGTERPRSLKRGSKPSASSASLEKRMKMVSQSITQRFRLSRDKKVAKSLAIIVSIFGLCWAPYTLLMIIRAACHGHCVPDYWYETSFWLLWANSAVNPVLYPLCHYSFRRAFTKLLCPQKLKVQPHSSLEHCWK
smiles,measurement,value
O=C(/C=C/c1ccc(Cc2c[nH]cn2)cc1)NCCc1ccc(Cl)cc1 [Compound 3],Ki,1 to 19 nM
